# Source: PubChem BioAssay AID1919003 (Molecular Pharmacology Branch, DTP, NCI, 2023)
# Test system: 786-0 complex spheroids with HUVEC/MSC, growth % test/control
# Assay: Anticancer human tumor 786-0 cell line growth inhibition [AhR];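 also: compound exposure lasted seven days before the read-out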
# Details: for IC50: curve of first compound; for viability, T/C: stronger effect = lower value
# In short: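 Spheroids combined tumor cells with HUVEC endothelial cells and human MSCs as stroma. AhR antagonists were paired with standard or investigational drugs, each dosed in half-log steps down from near clinical Cmax, or from 10 microM where Cmax was unknown.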
# [1] = second compound 0.1 µM, first compound 0.0316 µM
# [2] = second compound 0.1 µM, first compound 0.1 µM
# [3] = second compound 0.1 µM, first compound 0.316 µM
# [4] = second compound 0.1 µM, first compound 1 µM
# [5] = second compound 0.1 µM, first compound 3.16 µM
# [6] = second compound 0.1 µM, first compound 10 µM
# [7] = second compound 0.316 µM, first compound 0.0316 µM
# [8] = second compound 0.316 µM, first compound 0.1 µM
# [9] = second compound 0.316 µM, first compound 0.316 µM
# [10] = second compound 0.316 µM, first compound 1 µM
# [11] = second compound 0.316 µM, first compound 3.16 µM
# [12] = second compound 0.316 µM, first compound 10 µM
# [13] = second compound 1 µM, first compound 0.0316 µM
# [14] = second compound 1 µM, first compound 0.1 µM
# [15] = second compound 1 µM, first compound 0.316 µM
# [16] = second compound 1 µM, first compound 1 µM
# [17] = second compound 1 µM, first compound 3.16 µM
# [18] = second compound 1 µM, first compound 10 µM
# [19] = second compound 3.16 µM, first compound 0.0316 µM
# [20] = second compound 3.16 µM, first compound 0.1 µM
# [21] = second compound 3.16 µM, first compound 0.316 µM
# [22] = second compound 3.16 µM, first compound 1 µM
# [23] = second compound 3.16 µM, first compound 3.16 µM
# [24] = second compound 3.16 µM, first compound 10 µM
# [25] = second compound 10 µM, first compound 0.0316 µM
# [26] = second compound 10 µM, first compound 0.1 µM
# [27] = second compound 10 µM, first compound 0.316 µM
# [28] = second compound 10 µM, first compound 1 µM
# [29] = second compound 10 µM, first compound 3.16 µM
# [30] = second compound 10 µM, first compound 10 µM
SMILES,IC50 (second compound 0.1 µM) [µM],IC50 (second compound 0.316 µM) [µM],IC50 (second compound 1 µM) [µM],IC50 (second compound 3.16 µM) [µM],IC50 (second compound 10 µM) [µM],"viability, T/C [1] [%]","viability, T/C [2] [%]","viability, T/C [3] [%]","viability, T/C [4] [%]","viability, T/C [7] [%]","viability, T/C [8] [%]","viability, T/C [9] [%]","viability, T/C [10] [%]","viability, T/C [13] [%]","viability, T/C [14] [%]","viability, T/C [15] [%]","viability, T/C [16] [%]","viability, T/C [19] [%]","viability, T/C [20] [%]","viability, T/C [21] [%]",other results
CC(C)c1c(-c2ccccc2)nc2c(C#N)c[nH]n2c1=O + Cc1ccccc1N=Nc1ccc(NC(=O)c2ccnn2C)c(C)c1,> 10,> 10,> 10,> 10,> 10,93.9,99.9,99.5,101,90.1,93.4,97.1,95.5,94.6,92.8,114,98.6,86.8,85.3,89.6,"viability, T/C [5]: 92.1%; viability, T/C [6]: 99%; viability, T/C [11]: 92.6%; viability, T/C [12]: 95.2%; viability, T/C [17]: 96.3%; viability, T/C [18]: 88.9%; viability, T/C [22]: 82.8%; viability, T/C [23]: 85%; viability, T/C [24]: 84.2%; viability, T/C [25]: 86.6%; viability, T/C [26]: 83.9%; viability, T/C [27]: 84.5%; viability, T/C [28]: 82.4%; viability, T/C [29]: 83.1%; viability, T/C [30]: 79.5%"
CC1COCCN1c1cc(-c2ccnn2C)c2ccnc(-c3ccn[nH]3)c2n1 (stereo not given) + Cc1ccccc1N=Nc1ccc(NC(=O)c2ccnn2C)c(C)c1,0.196,0.197,0.211,0.177,0.155,105,86.9,23.9,8.22,108,86.2,24.9,8.15,102,92.5,26.9,7.53,89.3,77.7,22.7,"viability, T/C (second compound 0.1 µM, first compound 0.00316 µM): 97.6%; viability, T/C (second compound 0.1 µM, first compound 0.01 µM): 108%; viability, T/C (second compound 0.316 µM, first compound 0.00316 µM): 107%; viability, T/C (second compound 0.316 µM, first compound 0.01 µM): 109%; viability, T/C (second compound 1 µM, first compound 0.00316 µM): 119%; viability, T/C (second compound 1 µM, first compound 0.01 µM): 104%; viability, T/C (second compound 3.16 µM, first compound 0.00316 µM): 99.5%; viability, T/C (second compound 3.16 µM, first compound 0.01 µM): 112%; viability, T/C [22]: 10.2%; viability, T/C (second compound 10 µM, first compound 0.00316 µM): 96.9%; viability, T/C (second compound 10 µM, first compound 0.01 µM): 96.8%; viability, T/C [25]: 96.1%; viability, T/C [26]: 67.5%; viability, T/C [27]: 21.2%; viability, T/C [28]: 9.41%"
COc1ccc([C@@H](O)c2cc(-c3ncnc4cc(N5CCOCC5)ccc34)c(F)cc2Cl)nn1 + Cc1ccccc1N=Nc1ccc(NC(=O)c2ccnn2C)c(C)c1,> 10,> 10,> 10,> 10,9.48,90.6,96,99.4,102,97.6,102,99.2,100,86.4,93.3,96,105,84.8,87.1,82.9,"viability, T/C [5]: 102%; viability, T/C [6]: 79.9%; viability, T/C [11]: 106%; viability, T/C [12]: 87.1%; viability, T/C [17]: 97.1%; viability, T/C [18]: 77.4%; viability, T/C [22]: 84.1%; viability, T/C [23]: 89.3%; viability, T/C [24]: 63.9%; viability, T/C [25]: 96.9%; viability, T/C [26]: 90.2%; viability, T/C [27]: 81.9%; viability, T/C [28]: 86.1%; viability, T/C [29]: 72.8%; viability, T/C [30]: 48.2%"
